Measurements published in PubChem BioAssay (NCI).
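Each compound was tested at five concentrations against cells in 96-well plates for 48 hours. At the TGI there is no net growth.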

How the values were obtained:
Assay in all cases: growth of human tumour cells (NCI), 48 h
MOLT-4 leukemia = system: MOLT-4 leukemia
EKVX NSCLC = system: EKVX NSCLC
T-47D breast = system: T-47D breast
HT29 colon = system: HT29 colon
K-562 leukemia = system: K-562 leukemia
SF-295 CNS = system: SF-295 CNS
MCF7 breast = system: MCF7 breast
SR leukemia = system: SR leukemia
UO-31 renal = system: UO-31 renal
SK-MEL-2 melanoma = system: SK-MEL-2 melanoma
OVCAR-3 ovarian = system: OVCAR-3 ovarian
SW-620 colon = system: SW-620 colon
A549 NSCLC = system: A549 NSCLC
NCI-H23 lung = system: NCI-H23 lung
PC-3 prostate = system: PC-3 prostate
CAKI-1 renal = system: CAKI-1 renal
UACC-257 melanoma = system: UACC-257 melanoma
SF-539 CNS = system: SF-539 CNS
OVCAR-4 ovarian = system: OVCAR-4 ovarian
NCI-H226 lung = system: NCI-H226 lung
SN12C renal = system: SN12C renal
MDA-N = system: MDA-N
MDA-MB-231 breast = system: MDA-MB-231 breast
ACHN renal = system: ACHN renal
DU-145 prostate = system: DU-145 prostate
SF-268 CNS = system: SF-268 CNS
IGROV1 ovarian = system: IGROV1 ovarian
COLO 205 colon = system: COLO 205 colon
HCC-2998 colon = system: HCC-2998 colon
SK-MEL-5 melanoma = system: SK-MEL-5 melanoma
HCT-116 colon = system: HCT-116 colon
OVCAR-5 ovarian = system: OVCAR-5 ovarian
BT-549 breast = system: BT-549 breast
SK-MEL-28 melanoma = system: SK-MEL-28 melanoma
HS 578T breast = system: HS 578T breast
SNB-19 CNS = system: SNB-19 CNS
RXF 393 renal = system: RXF 393 renal
HCT-15 colon = system: HCT-15 colon
786-0 renal = system: 786-0 renal
HL-60(TB) leukemia = system: HL-60(TB) leukemia
M14 melanoma = system: M14 melanoma
OVCAR-8 ovarian = system: OVCAR-8 ovarian
MDA-MB-435 = system: MDA-MB-435
CCRF-CEM leukemia = system: CCRF-CEM leukemia
MALME-3M melanoma = system: MALME-3M melanoma
NCI-H522 lung = system: NCI-H522 lung
KM12 colon = system: KM12 colon
NCI-H460 lung = system: NCI-H460 lung
U251 CNS = system: U251 CNS
HOP-62 NSCLC = system: HOP-62 NSCLC
SNB-75 CNS = system: SNB-75 CNS
TK-10 renal = system: TK-10 renal
UACC-62 melanoma = system: UACC-62 melanoma
LOX IMVI melanoma = system: LOX IMVI melanoma
SK-OV-3 ovarian = system: SK-OV-3 ovarian
NCI/ADR-RES ovarian = system: NCI/ADR-RES ovarian

Measured: TGI

COC(=O)C(Cc1ccc(OC)cc1O)NC(=O)OC(C)(C)C (stereo unspecified)
95 µM: UACC-257 melanoma
> 100 µM: all other assays above
